The NIST ThermoML archive (doi:10.1016/j.jct.2008.09.002)
Numbers after ± are expanded uncertainties.

Tests used:
[1] = 101.33 kPa, Liquid; for speed of sound: Anton-Paar DSA48 sound analyzer; for mass density: Vibrating tube method
[2] = molar heat capacity at constant pressure; settings: 101.33 kPa, Liquid, Small sample (50 mg) DSC
[3] = excess molar enthalpy (molar enthalpy of mixing); xn = mol fraction of the nth substance listed; settings: 303.15 K, 101.3 kPa, Liquid, Calvet calorimetry

Structure (SMILES)	speed of sound ([1]; 293.15 K)	mass density ([1]; 293.15 K)	speed of sound ([1]; 298.15 K)	mass density ([1]; 298.15 K)	speed of sound ([1]; 303.15 K)	mass density ([1]; 303.15 K)	speed of sound ([1]; 308.15 K)	mass density ([1]; 308.15 K)	speed of sound ([1]; 313.15 K)	mass density ([1]; 313.15 K)	speed of sound ([1]; 318.15 K)	mass density ([1]; 318.15 K)	molar heat capacity at constant pressure ([2]; 293.15 K)	molar heat capacity at constant pressure ([2]; 298.15 K)	molar heat capacity at constant pressure ([2]; 303.15 K)	molar heat capacity at constant pressure ([2]; 308.15 K)	molar heat capacity at constant pressure ([2]; 313.15 K)	molar heat capacity at constant pressure ([2]; 318.15 K)	also measured
CCn1cc[n+](C)c1.O=S(=O)([O-])C(F)(F)F [1-ethyl-3-methylimidazolium trifluoromethanesulfonate]	1447 ± 2 m/s	1389.5 ± 1.7 kg/m3	1435.6 ± 2 m/s	1385.3 ± 1.7 kg/m3	1424.3 ± 2 m/s	1381.1 ± 1.7 kg/m3	1413.1 ± 2 m/s	1376.9 ± 1.7 kg/m3	1402.1 ± 2 m/s	1372.7 ± 1.7 kg/m3	1391.1 ± 2 m/s	1368.6 ± 1.7 kg/m3	361.1 ± 5.6 J/K/mol	363.2 ± 5.6 J/K/mol	365.3 ± 5.7 J/K/mol	367.4 ± 5.7 J/K/mol	369.6 ± 5.7 J/K/mol	371.8 ± 5.8 J/K/mol	–
CCCCn1cc[n+](C)c1.COS(=O)(=O)[O-] [1-butyl-3-methylimidazolium methyl sulfate]	1670.9 ± 2 m/s	1210.7 ± 1.3 kg/m3	1658.4 ± 2 m/s	1207.4 ± 1.3 kg/m3	1646 ± 2 m/s	1204.1 ± 1.3 kg/m3	1633.5 ± 2 m/s	1200.8 ± 1.3 kg/m3	1621.1 ± 2 m/s	1197.5 ± 1.3 kg/m3	1608.6 ± 2 m/s	1194.2 ± 1.3 kg/m3	413.7 ± 6.4 J/K/mol	416.2 ± 6.4 J/K/mol	418.5 ± 6.5 J/K/mol	420.9 ± 6.5 J/K/mol	423.3 ± 6.6 J/K/mol	425.6 ± 6.6 J/K/mol	–
C[N+](=O)[O-] [nitromethane] + CCCC[n+]1cccc(C)c1.F[B-](F)(F)F	–	–	–	–	–	–	–	–	–	–	–	–	–	–	–	–	–	–	excess molar enthalpy ([3]; x2 = 0.0992): -0.0602 ± 0.00478 kcal/mol; excess molar enthalpy ([3]; x2 = 0.1547): -0.0784 ± 0.00621 kcal/mol; excess molar enthalpy ([3]; x2 = 0.1998): -0.0958 ± 0.00765 kcal/mol; excess molar enthalpy ([3]; x2 = 0.3029): -0.106 ± 0.0086 kcal/mol; excess molar enthalpy ([3]; x2 = 0.3978): -0.114 ± 0.00908 kcal/mol; excess molar enthalpy ([3]; x2 = 0.4973): -0.112 ± 0.00908 kcal/mol; excess molar enthalpy ([3]; x2 = 0.6053): -0.0946 ± 0.00765 kcal/mol; excess molar enthalpy ([3]; x2 = 0.7038): -0.0803 ± 0.00645 kcal/mol; excess molar enthalpy ([3]; x2 = 0.795): -0.0557 ± 0.00454 kcal/mol; excess molar enthalpy ([3]; x2 = 0.8525): -0.0387 ± 0.00311 kcal/mol
CCCCCCn1cc[n+](C)c1.F[B-](F)(F)F [1-hexyl-3-methylimidazolium tetrafluoroborate]	1532.7 ± 2 m/s	1148.8 ± 1.2 kg/m3	1519.5 ± 2 m/s	1145.3 ± 1.1 kg/m3	1506.9 ± 2 m/s	1141.8 ± 1.1 kg/m3	1494.5 ± 2 m/s	1138.4 ± 1.1 kg/m3	1482.3 ± 2 m/s	1135 ± 1.1 kg/m3	1470.5 ± 2 m/s	1131.6 ± 1.1 kg/m3	425.1 ± 6.6 J/K/mol	427.8 ± 6.6 J/K/mol	430.4 ± 6.7 J/K/mol	433 ± 6.7 J/K/mol	435.5 ± 6.7 J/K/mol	438.1 ± 6.8 J/K/mol	–
CCCCn1cc[n+](C)c1.O=S(=O)([O-])C(F)(F)F [1-butyl-3-methylimidazolium trifluoromethanesulfonate]	1403.4 ± 2 m/s	1301.6 ± 1.5 kg/m3	1392.1 ± 2 m/s	1297.6 ± 1.5 kg/m3	1380.9 ± 2 m/s	1293.7 ± 1.5 kg/m3	1369.8 ± 2 m/s	1289.7 ± 1.5 kg/m3	1358.8 ± 2 m/s	1285.8 ± 1.5 kg/m3	1348.1 ± 2 m/s	1281.9 ± 1.5 kg/m3	421.6 ± 6.5 J/K/mol	424.1 ± 6.6 J/K/mol	426.7 ± 6.6 J/K/mol	429.5 ± 6.7 J/K/mol	432.4 ± 6.7 J/K/mol	435.5 ± 6.7 J/K/mol	–
CCOS(=O)(=O)[O-].CCn1cc[n+](C)c1 [1-ethyl-3-methylimidazolium ethyl sulfate]	1691.4 ± 2 m/s	1240.6 ± 1.4 kg/m3	1679 ± 2 m/s	1237.2 ± 1.4 kg/m3	1666.6 ± 2 m/s	1233.8 ± 1.4 kg/m3	1654 ± 2 m/s	1230.4 ± 1.3 kg/m3	1641.6 ± 2 m/s	1227 ± 1.3 kg/m3	1629.2 ± 2 m/s	1223.7 ± 1.3 kg/m3	392.2 ± 6.1 J/K/mol	394.4 ± 6.1 J/K/mol	396.8 ± 6.1 J/K/mol	399.3 ± 6.2 J/K/mol	402 ± 6.2 J/K/mol	404.9 ± 6.3 J/K/mol	–
C[N+](=O)[O-] [nitromethane]	1339.6 ± 1.5 m/s	1140.2 ± 0.7 kg/m3	1320.1 ± 1.5 m/s	1133.4 ± 0.7 kg/m3	1300.5 ± 1.5 m/s	1126.6 ± 0.7 kg/m3	1280.7 ± 1.5 m/s	1119.7 ± 0.6 kg/m3	1261.1 ± 1.5 m/s	1112.9 ± 0.6 kg/m3	1241.6 ± 1.5 m/s	1106 ± 0.6 kg/m3	106.6 ± 1.7 J/K/mol	106.9 ± 1.7 J/K/mol	107.3 ± 1.7 J/K/mol	107.7 ± 1.7 J/K/mol	108.2 ± 1.7 J/K/mol	108.6 ± 1.7 J/K/mol	–
CCCCn1cc[n+](C)c1.F[B-](F)(F)F [1-butyl-3-methylimidazolium tetrafluoroborate]	1594.9 ± 2 m/s	1207.6 ± 1.3 kg/m3	1576.1 ± 2 m/s	1204.1 ± 1.3 kg/m3	1555.5 ± 2 m/s	1200.5 ± 1.3 kg/m3	1543.9 ± 2 m/s	1197 ± 1.3 kg/m3	1532.5 ± 2 m/s	1193.4 ± 1.3 kg/m3	1521.2 ± 2 m/s	1189.9 ± 1.3 kg/m3	359.8 ± 5.6 J/K/mol	363.1 ± 5.6 J/K/mol	366.1 ± 5.7 J/K/mol	368.7 ± 5.7 J/K/mol	371 ± 5.7 J/K/mol	372.9 ± 5.8 J/K/mol	–
CCCC[n+]1cccc(C)c1.F[B-](F)(F)F [1-butyl-3-methylpyridinium tetrafluoroborate]	1599.8 ± 2 m/s	–	1587 ± 2 m/s	–	1574.8 ± 2 m/s	–	1562.6 ± 2 m/s	–	1550.7 ± 2 m/s	–	1538.9 ± 2 m/s	–	–	–	–	–	–	–	–
